Reference: PMC6421522, “Designing Dual Inhibitors of Anaplastic Lymphoma Kinase (ALK) and Bromodomain-4 (BRD4) by Tuning Kinase Selectivity” (Journal of Medicinal Chemistry, 2019)

What was measured:
Type in all cases: binding
ALK WT = ALK WT (Homo sapiens, UniProt Q9UM73); assay: Biochemical ALK WT IC50; details: geometric mean
EPHA2 = target: T1, EPHA2 (Homo sapiens, UniProt P29317); assay: KINOMEscan scanEDGE; details: read-out: % Control (1µM)
T1 construct: purchased DiscoveRx KINOMEscan (scanEDGE); Thermo Fisher SelectScreen (Z'-LYTE) for PLK-1
T1 sequence (P29317 24-976): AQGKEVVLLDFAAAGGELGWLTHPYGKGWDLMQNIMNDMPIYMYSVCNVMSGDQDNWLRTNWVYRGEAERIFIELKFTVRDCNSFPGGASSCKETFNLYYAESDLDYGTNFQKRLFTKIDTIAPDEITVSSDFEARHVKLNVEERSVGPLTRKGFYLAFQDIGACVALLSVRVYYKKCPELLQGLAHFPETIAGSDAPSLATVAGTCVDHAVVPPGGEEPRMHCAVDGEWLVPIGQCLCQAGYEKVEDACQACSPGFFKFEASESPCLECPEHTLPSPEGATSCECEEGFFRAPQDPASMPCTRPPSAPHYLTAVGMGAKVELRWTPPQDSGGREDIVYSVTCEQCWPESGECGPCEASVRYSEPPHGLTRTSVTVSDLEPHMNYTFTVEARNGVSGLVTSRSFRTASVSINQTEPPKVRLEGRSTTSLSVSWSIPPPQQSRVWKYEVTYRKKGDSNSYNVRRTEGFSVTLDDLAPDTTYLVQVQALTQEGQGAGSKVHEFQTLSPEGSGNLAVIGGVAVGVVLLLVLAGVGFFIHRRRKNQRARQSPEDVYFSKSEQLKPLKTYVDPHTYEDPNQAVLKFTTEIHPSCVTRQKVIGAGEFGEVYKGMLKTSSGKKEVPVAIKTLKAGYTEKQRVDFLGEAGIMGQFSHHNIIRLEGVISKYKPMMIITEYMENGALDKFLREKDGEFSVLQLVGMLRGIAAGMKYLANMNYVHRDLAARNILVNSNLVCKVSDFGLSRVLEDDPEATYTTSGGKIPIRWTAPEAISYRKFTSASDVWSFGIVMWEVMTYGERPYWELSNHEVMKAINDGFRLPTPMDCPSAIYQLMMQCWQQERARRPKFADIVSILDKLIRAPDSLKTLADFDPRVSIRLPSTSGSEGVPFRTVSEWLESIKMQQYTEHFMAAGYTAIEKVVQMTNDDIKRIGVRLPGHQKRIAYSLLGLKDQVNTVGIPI
Method: (§1) Compound X was assayed at 1 μM in the DiscoveRx KINOMEscan (scanEDGE) assay platform. The results for single-concentration binding interactions are reported as “%Ctrl” (DMSO = 100%Ctrl), where lower numbers indicate stronger hits.

MEK2 = target: T2, MEK2 (Homo sapiens, UniProt P36507); assay: KINOMEscan scanEDGE; details: read-out: % Control (1µM)
T2 construct: purchased DiscoveRx KINOMEscan (scanEDGE); Thermo Fisher SelectScreen (Z'-LYTE) for PLK-1
Method: as §1

GSK3B = target: T3, GSK3B (Homo sapiens, UniProt P49841); assay: KINOMEscan scanEDGE; details: read-out: % Control (1µM)
T3 construct: purchased DiscoveRx KINOMEscan (scanEDGE); Thermo Fisher SelectScreen (Z'-LYTE) for PLK-1
T3 sequence (P49841 whole entry): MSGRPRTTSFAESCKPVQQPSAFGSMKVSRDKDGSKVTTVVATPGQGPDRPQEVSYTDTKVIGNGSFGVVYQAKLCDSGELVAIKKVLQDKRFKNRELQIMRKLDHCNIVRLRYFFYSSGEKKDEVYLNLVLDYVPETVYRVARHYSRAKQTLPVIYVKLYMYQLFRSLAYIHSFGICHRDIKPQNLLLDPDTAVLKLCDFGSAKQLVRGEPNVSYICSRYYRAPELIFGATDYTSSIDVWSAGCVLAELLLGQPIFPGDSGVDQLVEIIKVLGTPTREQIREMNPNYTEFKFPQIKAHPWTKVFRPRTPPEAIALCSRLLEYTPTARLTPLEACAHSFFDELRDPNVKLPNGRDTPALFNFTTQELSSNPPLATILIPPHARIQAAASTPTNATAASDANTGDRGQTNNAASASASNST
Method: as §1

PIM1 = target: T4, PIM1 (Homo sapiens, UniProt P11309); assay: KINOMEscan scanEDGE; details: read-out: % Control (1µM)
T4 construct: purchased DiscoveRx KINOMEscan (scanEDGE); Thermo Fisher SelectScreen (Z'-LYTE) for PLK-1
Method: as §1

MAPKAPK2 = target: T5, MAPKAPK2 (Homo sapiens, UniProt P49137); assay: KINOMEscan scanEDGE; details: read-out: % Control (1µM)
T5 construct: purchased DiscoveRx KINOMEscan (scanEDGE); Thermo Fisher SelectScreen (Z'-LYTE) for PLK-1
T5 sequence (P49137 whole entry): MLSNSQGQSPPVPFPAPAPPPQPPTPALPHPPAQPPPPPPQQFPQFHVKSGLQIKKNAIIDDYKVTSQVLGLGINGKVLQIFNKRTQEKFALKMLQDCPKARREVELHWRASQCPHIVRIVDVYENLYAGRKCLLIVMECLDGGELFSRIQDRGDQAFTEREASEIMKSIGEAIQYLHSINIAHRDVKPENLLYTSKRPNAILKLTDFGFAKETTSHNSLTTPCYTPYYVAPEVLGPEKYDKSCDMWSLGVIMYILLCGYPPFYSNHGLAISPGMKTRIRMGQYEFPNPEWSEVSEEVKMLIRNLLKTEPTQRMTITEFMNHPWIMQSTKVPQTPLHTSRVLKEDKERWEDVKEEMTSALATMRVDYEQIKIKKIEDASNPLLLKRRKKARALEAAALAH
Method: as §1

PRKCE = target: T6, PRKCE (Homo sapiens, UniProt Q02156); assay: KINOMEscan scanEDGE; details: read-out: % Control (1µM)
T6 construct: purchased DiscoveRx KINOMEscan (scanEDGE); Thermo Fisher SelectScreen (Z'-LYTE) for PLK-1
T6 sequence (Q02156 whole entry): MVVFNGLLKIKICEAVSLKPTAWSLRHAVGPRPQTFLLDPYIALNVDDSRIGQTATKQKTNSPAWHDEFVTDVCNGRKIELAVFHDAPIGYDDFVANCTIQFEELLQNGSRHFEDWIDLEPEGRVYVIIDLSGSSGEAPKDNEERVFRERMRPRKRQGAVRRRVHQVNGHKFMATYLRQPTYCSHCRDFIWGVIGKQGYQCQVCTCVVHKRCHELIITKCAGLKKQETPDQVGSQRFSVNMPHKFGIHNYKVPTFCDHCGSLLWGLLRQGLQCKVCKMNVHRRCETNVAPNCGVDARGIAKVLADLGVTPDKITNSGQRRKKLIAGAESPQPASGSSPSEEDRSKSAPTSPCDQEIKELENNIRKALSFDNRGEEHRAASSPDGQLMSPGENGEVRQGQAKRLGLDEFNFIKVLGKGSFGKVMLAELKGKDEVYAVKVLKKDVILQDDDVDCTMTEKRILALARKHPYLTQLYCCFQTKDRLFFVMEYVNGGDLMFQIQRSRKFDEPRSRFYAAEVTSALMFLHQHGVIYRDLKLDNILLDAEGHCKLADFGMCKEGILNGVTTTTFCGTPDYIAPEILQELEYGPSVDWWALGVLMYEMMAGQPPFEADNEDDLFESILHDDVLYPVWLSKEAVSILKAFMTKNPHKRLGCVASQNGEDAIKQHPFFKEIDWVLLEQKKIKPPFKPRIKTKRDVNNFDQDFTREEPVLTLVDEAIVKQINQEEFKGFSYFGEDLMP
Method: as §1

TGFBR1 = target: T7, TGFBR1 (Homo sapiens, UniProt P36897); assay: KINOMEscan scanEDGE; details: read-out: % Control (1µM)
T7 construct: purchased DiscoveRx KINOMEscan (scanEDGE); Thermo Fisher SelectScreen (Z'-LYTE) for PLK-1
Method: as §1

JNK3 = target: T8, JNK3 (Homo sapiens, UniProt P53779); assay: KINOMEscan scanEDGE; details: read-out: % Control (1µM)
T8 construct: purchased DiscoveRx (DiscoverX)
T8 sequence (P53779 whole entry): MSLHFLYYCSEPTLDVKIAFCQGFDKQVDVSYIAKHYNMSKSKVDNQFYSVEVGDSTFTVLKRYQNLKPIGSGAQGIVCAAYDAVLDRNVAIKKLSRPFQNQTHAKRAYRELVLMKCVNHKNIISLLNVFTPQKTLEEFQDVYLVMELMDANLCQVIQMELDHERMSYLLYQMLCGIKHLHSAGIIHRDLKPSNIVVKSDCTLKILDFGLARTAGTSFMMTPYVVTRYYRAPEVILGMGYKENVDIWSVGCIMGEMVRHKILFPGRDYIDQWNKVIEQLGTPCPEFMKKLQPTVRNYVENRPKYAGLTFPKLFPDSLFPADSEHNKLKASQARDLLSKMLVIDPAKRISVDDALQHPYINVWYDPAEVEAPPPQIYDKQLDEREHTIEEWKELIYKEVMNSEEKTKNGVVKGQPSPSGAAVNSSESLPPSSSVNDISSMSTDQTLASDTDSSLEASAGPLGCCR
Method: as §1

FLT3 = target: T9, FLT3 (Homo sapiens, UniProt P36888); assay: KINOMEscan scanEDGE; details: read-out: % Control (1µM)
T9 construct: purchased DiscoveRx KINOMEscan (scanEDGE); Thermo Fisher SelectScreen (Z'-LYTE) for PLK-1
T9 sequence (P36888 27-993): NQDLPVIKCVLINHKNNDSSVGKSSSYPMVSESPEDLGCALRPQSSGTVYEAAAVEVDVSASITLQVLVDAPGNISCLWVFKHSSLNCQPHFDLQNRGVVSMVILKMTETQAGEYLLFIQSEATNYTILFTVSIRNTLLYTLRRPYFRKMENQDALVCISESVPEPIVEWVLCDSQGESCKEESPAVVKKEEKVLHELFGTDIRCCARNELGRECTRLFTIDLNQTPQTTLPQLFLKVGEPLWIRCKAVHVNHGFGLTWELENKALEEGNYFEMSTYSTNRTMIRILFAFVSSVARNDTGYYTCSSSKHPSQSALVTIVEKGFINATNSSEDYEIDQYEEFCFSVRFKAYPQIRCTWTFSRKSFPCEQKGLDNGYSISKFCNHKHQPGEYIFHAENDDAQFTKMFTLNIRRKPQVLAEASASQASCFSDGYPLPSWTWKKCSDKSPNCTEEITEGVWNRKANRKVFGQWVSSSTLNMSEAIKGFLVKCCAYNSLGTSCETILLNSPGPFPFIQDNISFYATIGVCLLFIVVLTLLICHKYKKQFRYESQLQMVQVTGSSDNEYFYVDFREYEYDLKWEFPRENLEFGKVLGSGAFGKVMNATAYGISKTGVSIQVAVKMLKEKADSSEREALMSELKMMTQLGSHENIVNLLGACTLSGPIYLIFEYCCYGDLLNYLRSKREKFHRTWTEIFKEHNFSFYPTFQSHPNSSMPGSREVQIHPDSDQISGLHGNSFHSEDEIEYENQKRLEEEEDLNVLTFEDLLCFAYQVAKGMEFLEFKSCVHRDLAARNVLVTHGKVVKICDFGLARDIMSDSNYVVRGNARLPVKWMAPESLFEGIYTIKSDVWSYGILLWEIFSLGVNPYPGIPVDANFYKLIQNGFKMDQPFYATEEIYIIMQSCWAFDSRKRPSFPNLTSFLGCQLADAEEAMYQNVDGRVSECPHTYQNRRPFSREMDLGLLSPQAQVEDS
Method: as §1

[1] = target: T10, TYK2(JH1domain-catalytic) (Homo sapiens, UniProt P29597); assay: KINOMEscan scanEDGE; details: read-out: % Control (1µM)
T10 construct: TYK2(JH1domain-catalytic); purchased DiscoveRx KINOMEscan (scanEDGE); Thermo Fisher SelectScreen (Z'-LYTE) for PLK-1
T10 sequence (P29597 897-1176 limits assumed): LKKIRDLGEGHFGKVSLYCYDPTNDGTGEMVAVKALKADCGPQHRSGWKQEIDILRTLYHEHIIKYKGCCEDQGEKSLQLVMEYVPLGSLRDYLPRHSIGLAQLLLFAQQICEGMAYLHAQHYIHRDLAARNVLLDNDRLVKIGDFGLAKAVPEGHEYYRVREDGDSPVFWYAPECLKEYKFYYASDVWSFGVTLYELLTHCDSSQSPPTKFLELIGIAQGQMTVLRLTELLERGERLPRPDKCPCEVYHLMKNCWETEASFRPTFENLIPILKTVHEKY
Method: as §1

[2] = target: T11, RSK2(Kin.Dom.1-N-terminal) (Homo sapiens, UniProt P51812); assay: KINOMEscan scanEDGE; details: read-out: % Control (1µM)
T11 construct: RSK2(Kin.Dom.1-N-terminal); purchased DiscoveRx KINOMEscan (scanEDGE); Thermo Fisher SelectScreen (Z'-LYTE) for PLK-1
Method: as §1

CDK11 = target: T12, CDK11 (Homo sapiens, UniProt Q9BWU1); assay: KINOMEscan scanEDGE; details: read-out: % Control (1µM)
T12 construct: purchased DiscoveRx KINOMEscan (scanEDGE); Thermo Fisher SelectScreen (Z'-LYTE) for PLK-1
Method: as §1

SRPK3 = target: T13, SRPK3 (Homo sapiens, UniProt Q9UPE1); assay: KINOMEscan scanEDGE; details: read-out: % Control (1µM)
T13 construct: purchased DiscoveRx KINOMEscan (scanEDGE); Thermo Fisher SelectScreen (Z'-LYTE) for PLK-1
Method: as §1

PB1A(6) = target: T14, PB1A(6) (Homo sapiens, UniProt Q86U86); assay: Bromodomain thermal shift screening (DSF); details: Group VIII
T14 construct: Bromodomain thermal shift screening data for 16k
Method: (§2) BRD4 thermal shift was measured in a differential scanning fluorimetry (DSF) assay. The assay was performed on a Stratagene Mx3005P system quantitative polymerase chain reaction (qPCR). The assay was performed in 96-well plates with 20 μL of protein at 2 μM in DSF-assay buffer (10 mM HEPES pH 7.5, 500 mM NaCl) to which 4 μL of Sypro orange dye and 0.4 μL of 10 μM compound in DMSO was added. The plate was sealed and centrifuged (1 min, 1000 rpm), and the qPCR machine was used to detect SYPRO fluorescence while increasing the temperature from 25 to 95 °C in 71 cycles. The sigmoidal part of the fluorescence signal was fitted using the Boltzmann equation, the points of change were defined, and the thermal shift was calculated by subtracting the protein/DMSO Tm shift from the protein/compound Tm shift.

PB1A(5) = target: T15, PB1A(5) (Homo sapiens, UniProt Q86U86); assay: Bromodomain thermal shift screening (DSF); details: Group VIII
T15 construct: Bromodomain thermal shift screening data for 16k
T15 sequence (Q86U86 653-763 limits assumed): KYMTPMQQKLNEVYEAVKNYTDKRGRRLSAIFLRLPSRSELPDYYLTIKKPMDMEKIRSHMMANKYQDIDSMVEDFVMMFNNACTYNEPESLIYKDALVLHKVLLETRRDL
Method: as §2

BRDT(2) = target: T16, BRDT(2) (Homo sapiens, UniProt Q58F21); assay: Bromodomain thermal shift screening (DSF); details: Group II (BET)
T16 construct: Bromodomain thermal shift screening data for 16k
Method: as §2

TRIM33B = assay: Bromodomain thermal shift screening (DSF); details: Group V
Method: as §2

BRD1 = target: T17, BRD1 (Homo sapiens, UniProt O95696); assay: Bromodomain thermal shift screening (DSF); details: Group IV
T17 construct: Bromodomain thermal shift screening data for 16k
Method: as §2

TAF1LA(2) = target: T18, TAF1LA(2) (Homo sapiens, UniProt Q8IZX4); assay: Bromodomain thermal shift screening (DSF); details: Group VII
T18 construct: Bromodomain thermal shift screening data for 16k
Method: as §2

EP300 = target: T19, EP300 (Homo sapiens, UniProt Q09472); assay: Bromodomain thermal shift screening (DSF); details: Group III
T19 construct: Bromodomain thermal shift screening data for 16k
Method: as §2

SMARCA4A = target: T20, SMARCA4A (Homo sapiens, UniProt P51532); assay: Bromodomain thermal shift screening (DSF); details: Group VIII
T20 construct: Bromodomain thermal shift screening data for 16k
Method: as §2

TAF1LA(1) = target: T21, TAF1LA(1) (Homo sapiens, UniProt Q8IZX4); assay: Bromodomain thermal shift screening (DSF); details: Group VII
T21 construct: Bromodomain thermal shift screening data for 16k
Method: as §2

SP100 = target: T22, SP100 (Homo sapiens, UniProt P23497); assay: Bromodomain thermal shift screening (DSF); details: Group V
T22 construct: Bromodomain thermal shift screening data for 16k
Method: as §2

BRD2(2) = target: T23, BRD2(2) (Homo sapiens, UniProt P25440); assay: Bromodomain thermal shift screening (DSF); details: Group II (BET)
T23 construct: BRD2(2)
T23 sequence (P25440 344-453 limits assumed, species assumed): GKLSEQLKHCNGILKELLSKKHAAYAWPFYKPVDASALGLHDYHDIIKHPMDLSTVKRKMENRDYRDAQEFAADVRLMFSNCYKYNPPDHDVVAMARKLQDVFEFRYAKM
Method: as §2

PB1A(4) = target: T24, PB1A(4) (Homo sapiens, UniProt Q86U86); assay: Bromodomain thermal shift screening (DSF); details: Group VIII
T24 construct: Bromodomain thermal shift screening data for 16k
Method: as §2

BRDT(1) = target: T25, BRDT(1) (Homo sapiens, UniProt Q58F21); assay: Bromodomain thermal shift screening (DSF); details: Group II (BET)
T25 construct: Bromodomain thermal shift screening data for 16k
Method: as §2

PCAF = target: T26, PCAF (Homo sapiens, UniProt Q92831); assay: Bromodomain thermal shift screening (DSF); details: Group I
T26 construct: Bromodomain thermal shift screening data for 16k
Method: as §2

TAF1A(2) = target: T27, TAF1A(2) (Homo sapiens, UniProt P21675); assay: Bromodomain thermal shift screening (DSF); details: Group VII
T27 construct: Bromodomain thermal shift screening data for 16k
T27 sequence (P21675 1519-1628 limits assumed): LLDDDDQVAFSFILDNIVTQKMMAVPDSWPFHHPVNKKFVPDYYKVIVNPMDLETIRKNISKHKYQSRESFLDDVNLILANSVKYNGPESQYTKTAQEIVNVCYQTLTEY
Method: as §2

SMARCA2B = target: T28, SMARCA2B (Homo sapiens, UniProt P51531); assay: Bromodomain thermal shift screening (DSF); details: Group VIII
T28 construct: Bromodomain thermal shift screening data for 16k
Method: as §2

BRD2(1) = target: T29, BRD2(1) (Homo sapiens, UniProt P25440); assay: Bromodomain thermal shift screening (DSF); details: Group II (BET)
T29 construct: BRD2(1)
T29 sequence (P25440 74-180 limits assumed, species assumed): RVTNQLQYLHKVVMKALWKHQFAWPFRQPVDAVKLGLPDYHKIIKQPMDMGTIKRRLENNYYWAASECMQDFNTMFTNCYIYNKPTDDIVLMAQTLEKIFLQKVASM
Method: as §2

SMARCA2A = target: T30, SMARCA2A (Homo sapiens, UniProt P51531); assay: Bromodomain thermal shift screening (DSF); details: Group VIII
T30 construct: Bromodomain thermal shift screening data for 16k
T30 sequence (P51531 1378-1506 limits assumed): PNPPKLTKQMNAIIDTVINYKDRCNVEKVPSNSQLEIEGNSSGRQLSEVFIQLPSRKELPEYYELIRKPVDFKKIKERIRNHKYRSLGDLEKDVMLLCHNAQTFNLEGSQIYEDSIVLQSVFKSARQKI
Method: as §2

PB1A(1) = target: T31, PB1A(1) (Homo sapiens, UniProt Q86U86); assay: Bromodomain thermal shift screening (DSF); details: Group VIII
T31 construct: Bromodomain thermal shift screening data for 16k
Method: as §2

BRPF1A = target: T32, BRPF1A (Homo sapiens, UniProt P55201); assay: Bromodomain thermal shift screening (DSF); details: Group IV
T32 construct: Bromodomain thermal shift screening data for 16k
T32 sequence (P55201 626-746 isoform P55201-2 limits assumed): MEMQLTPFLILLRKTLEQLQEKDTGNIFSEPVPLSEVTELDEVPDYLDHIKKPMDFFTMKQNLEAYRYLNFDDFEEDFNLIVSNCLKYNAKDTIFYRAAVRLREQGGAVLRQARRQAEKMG
Method: as §2

WDR9 = assay: Bromodomain thermal shift screening (DSF); details: Group VII
Method: as §2

For `CCOc1cc(C2CCN(C)CC2)ccc1Nc1ncc2c(n1)N(Cc1cc(C)cs1)[C@H](CC)C(=O)N2C` [16k, (R)-2-((2-Ethoxy-4-(1-methylpiperidin-4-yl)phenyl)amino)-7-ethyl-5-methyl-8-((4-methylthiophen-2-yl)methyl)-7,8-dihydropteridin-6(5H)-one], the IC50 (ALK WT) was 60 ± 12 nM, the remaining binding at 1 µM (EPHA2) was 100% and the remaining binding at 1 µM (MEK2) was 100%. The remaining binding at 1 µM (GSK3B) was 82%, the remaining binding at 1 µM (PIM1) was 97% and the remaining binding at 1 µM (MAPKAPK2) was 100%. For the same compound, the remaining binding at 1 µM (PRKCE) was 100%, the remaining binding at 1 µM (TGFBR1) was 94% and the remaining binding at 1 µM (JNK3) was 39%. The remaining binding at 1 µM (FLT3) was 100%, the remaining binding at 1 µM [1] was 100% and the remaining binding at 1 µM [2] was 59%. The remaining binding at 1 µM (CDK11) was 93%, the remaining binding at 1 µM (SRPK3) was 100% and the “Thermal Shift” value (PB1A(6)) was -2.75 K. For the same compound, the “Thermal Shift” value (PB1A(5)) was -0.7 K, the “Thermal Shift” value (BRDT(2)) was 0.6 K and the “Thermal Shift” value (TRIM33B) was -1.2 K. For the same compound, the “Thermal Shift” value (BRD1) was -0.15 K, the “Thermal Shift” value (TAF1LA(2)) was -2.9 K and the “Thermal Shift” value (EP300) was -1 K. For the same compound, the “Thermal Shift” value (SMARCA4A) was -4.5 K, the “Thermal Shift” value (TAF1LA(1)) was -3.4 K and the “Thermal Shift” value (SP100) was 0.05 K. The “Thermal Shift” value (BRD2(2)) was 3.95 K, the “Thermal Shift” value (PB1A(4)) was -0.1 K and the “Thermal Shift” value (BRDT(1)) was 2.7 K. The “Thermal Shift” value (PCAF) was -1.65 K, the “Thermal Shift” value (TAF1A(2)) was -1.05 K and the “Thermal Shift” value (SMARCA2B) was -0.35 K. For the same compound, the “Thermal Shift” value (BRD2(1)) was -0.95 K, the “Thermal Shift” value (SMARCA2A) was -2.4 K and the “Thermal Shift” value (PB1A(1)) was 1.95 K. For the same compound, the “Thermal Shift” value (BRPF1A) was 0.8 K and the “Thermal Shift” value (WDR9) was -4.2 K.
